Assay results reported in US9273043B2, “TRPV1 antagonists including dihydroxy substituent and uses thereof” (Purdue Pharma L.P., priority 2011, dated 2016).
Converted amounts (≈) assume the structure as drawn. Where two headings read alike, the source gives them in different places.

Legend:
human TRPV1 [1] = biological target: T1, human TRPV1 (Homo sapiens (Human), UniProt Q8NER1); experiment: Human TRPV1 heat-based assay, hTRPV1/CHO cells (hHeat-CHO); type: cell-based; conditions: temperature ramp 25 to 45 °C, mean ± SEM
Protocol: Human TRPV1 Heat-based Assay:
CHO cells stably expressing human TRPV1 (hTRPV1) were used. Functional assessment of heat-induced activation of hTRPV1 was carried out in a cell-based Ca^2+ flux assay using ABI7500 Fast Real-Time PCR System as described in Reubish et al., “Functional assessment of temperature-gated ion-channel activity using a real-time PCR machine,” www.BioTechniques.com 47(3):iii-ix (2009), which is hereby incorporated by reference. Briefly, hTRPV1/CHO cells were cultured in growth media in a tissue culture dish at 37° C. in a CO2 incubator. On the day of the assay, culture media were removed and the cells were then detached using 0.05% trypsin at 37° C. with 5% CO2, for 90 s. The detached cells were centrifuged (1000 rpm, 4 min) to remove trypsin-containing supernatant and resuspended in assay buffer (115 mM NaCl, 5.4 mM KCl, 0.8 mM MgCl2.6H2O, 1.8 mM CaCl2.2H2O, 13.8 mM D-glucose, and 20 mM HEPES). Then, the cells were loaded with 5 μM Fluo-4, a Ca^2+ reporter dye, in the presence of 2.5 mM probenecid at 37° C. with 5% CO2, for 45 min. Thereafter, the cells were washed twice with measuring buffer (assay buffer supplemented with 0.1% BSA and 3.2 mM CaCl2) then transferred to a Fast 96-well Reaction Plate (0.1 mL) (Part no. 4346907, MICROAMP, Applied Biosystems, Foster City, Calif.). The cell density was 100,000 cells/24 μL/well. A solution of the compound under test (6 μL/well) was added into each well of the 96-well plate. Thus, the reaction volume per well was 30 μL.
The plates were then placed inside an ABI7500 Fast Real-Time PCR instrument (Applied Biosystems) to read fluorescence at different temperatures using 7500 software, version 2.0.2 (Applied Biosystems). The initial temperature was set at 25° C. for 1 min. followed by a temperature ramp to 45° C. in 100 s to deliver heat to cells. [Ca^2+], response of hTRPV1/CHO cells to heat was determined as: [fluorescence read at 45° C.−fluorescence read at 25° C.].
Compound concentration response curves and IC50 values were analyzed using GraphPad Prism 4 software (GraphPad Software, La Jolla, Calif.).
The IC50 data provided in Table 6 are shown as mean±standard error of the mean; the number of trials conducted for each assay is shown in parentheses except for only a single trial where no number of trials is shown in parentheses.

human TRPV1 [2] = biological target: T1, human TRPV1; experiment: Capsaicin-based assay, Protocol 2, TRPV1/CHO cells (hCAP-CHO), Fluo-4 FLIPR; type: cell-based; conditions: 100 nM capsaicin, mean ± SEM
Source text: The TRPV1/CHO cell line was generated as described below. […] The resulting PCR products were purified from agarose gels using Gel Band Purification Kit (GE Healthcare Bioscience) and were subcloned into pCR-Blunt vector (Invitrogen). The cloned cDNA was fully sequenced using a fluorescent dye-terminator reagent (BigDye Terminator ver3.1 Cycle Sequencing Kit, Applied Biosystems) and ABI Prism 3100 genetic analyzer (Applied Biosystems). The pCR-Blunt vector containing the hTRPV1 cDNA was subjected to restriction digestion with EcoR1. The restriction fragment was subcloned into expression vector pcDNA3.1(-) (Invitrogen) and named pcDNA3.1(-)-hVR1 plasmid. The sequence of the cDNA encoding TRPV1 is available at GenBank accession number AJ277028. […] The cells were transfected with the pcDNA3.1(-)-hVR1 plasmid using FuGENE6 (Roche) according to the manufacturer's protocol. 24 hr after transfection, neomycin-resistant cells were selected using 1 mg/mL G418 (Nacalai Tesque). […] The cells expressing hTRPV1 were cultured in the growth medium supplemented with 1 mg/mL G418. […] Capsaicin-based Assay: […] Subsequently, the cells were loaded by incubation in 0.1 mL of wash buffer containing Fluo-4 at 3 μM final concentration. After 1 hour, the cells were washed twice with 0.2 mL wash buffer and resuspended in 0.1 mL wash buffer. The plates were then transferred to a Fluorescence Imaging Plate Reader (Molecular Devices). Fluorescence intensity was monitored for 15 seconds to establish a baseline. […] The final concentration of the compound was adjusted to range from 100 μM to 1.5625 μM. […] Data were collected over the entire time course and analyzed using Excel and the curve-fitting formula GraphPad Prism.

human TRPV1 [3] = biological target: T1, human TRPV1; experiment: pH-based assay, Protocol 2, TRPV1/CHO cells (hpH-CHO), Fura-2 Ca2+ influx; type: cell-based; conditions: pH 5.0-5.1 (H2SO4), mean ± SEM
Protocol: For Protocol 2, a Chinese Hamster Ovary cell line (CHO) that has been engineered to constitutively express human recombinant TRPV1 was used (TRPV1/CHO cells). The TRPV1/CHO cell line was generated as described below.
TRPV1/CHO cells were seeded in the 96-well clear-bottom black-wall plate (Nunc) at densities of 1-2×10^4 cells/well and grown in 100 μL of culture medium (alpha-MEM supplemented with 10% FBS, 20 mM HEPES, 1 mg/mL geneticin and 1% antibiotic-antimycotic mixed stock solution) for 1-2 days before the experiment.
(1) Culture medium was removed using an 8-channel-pipette (Rainin, USA) from the 96-well plate and the wells were refilled with 100 μL of loading buffer (20 mM HEPES, 115 mM NaCl, 5.4 mM KCl, 0.8 mM MgCl2, 1.8 mM CaCl2, 13.8 mM D-glucose, 2.5 mM probenecid, pH 7.4) containing 5 μM Fura-2 AM (Dojin, Japan).
(2) The 96-well plate was incubated at 37° C. for 45 min.
(3) The loading buffer was removed from each well. The cells were subsequently washed twice with 150 μL of measuring buffer (20 mM HEPES, 115 mM NaCl, 5.4 mM KCl, 0.8 mM MgCl2, 5.0 mM CaCl2, 13.8 mM D-glucose, 0.1% BSA, pH 7.4) (no probenecid). The wells were then refilled with 80 μL of measuring buffer.
(4) After an incubation at 4° C. for 15 min, the 96-well plate was transferred to a model FDSS-3000 plate reader apparatus (Hamamatsu Photonics K.K., Japan).
(5) The Fura-2 fluorescent intensity was monitored at a wavelength of 340 nm and at 380 nm, respectively, at a rate of 0.5 Hz for a total of 240 seconds. After 16 time points (32 sec) of baseline detection, 20 μL of agonist solution was added to each well. The final volume was 100 μL/well.
(6) Fluorescence intensity ratio refers to the fluorescence intensity at 340 nm over the fluorescence intensity at 380 nm at a particular time point. The baseline was set as the average of the fluorescent intensity ratios for the first 16 time points before the addition of agonist solution. The maximum response was the highest fluorescent intensity ratio during the 60 time points following addition of agonist solution.
(7) Maximal signal ratios from each well were calculated as output data using the FDSS-3000 analysis program. Data were analyzed using Excel (Microsoft) and XLfit (idbs) software.
In an “agonist plate,” two different agonist solutions with different H2SO4 concentrations were used for the pH assay (see, e.g., FIG. 3A of U.S. Patent Application Publication No. US 2009/0170868 A1). For the first half of a 96-well plate one agonist solution was used; for the second half the other agonist solution was used. The agonist solutions were obtained by diluting sulfuric acid (1M H2SO4) with measuring buffer. The concentrations for the two agonist solutions were determined as described above in Section 2 of Protocol 2.
The sulfuric acid concentrations between the two agonist solutions differed by 0.5 mM. In the experiment described in Section 2 of Protocol 2, the sulfuric acid concentrations in the agonist solutions were determined to be 16 mM and 16.5 mM, respectively. After 1:4 dilution of the agonist solutions, the final sulfuric acid concentration was 3.2 mM and 3.3 mM, respectively. The resulting pH value for the pH assay was 5.0 to 5.1.
Test compounds were dissolved in DMSO to yield 1 mM stock solutions. The stock solutions were further diluted using DMSO in […] serial dilution steps with 6 points (1000, 250, 62.5, 15.625, 3.9062, and 0.977 μM). The thereby-obtained solutions were further diluted in measuring buffer (1:100) as 10× stock serial dilutions with a DMSO concentration of 1%. 10 μL of a 10× stock was added into each well of an “antagonist plate” (see step 3.3.(4) below). Thus, the final concentrations of antagonists was as follows: 0.977, 3.906, 15.63, 62.5, 250, and 1000 nM containing 0.1% DMSO (see, e.g., FIG. 3B of U.S. Patent Application Publication No. US 2009/0170868 A1).
Steps (1) and (2) of this Assay were the same as steps 2.2.(1) and 2.2.(2), respectively, of Protocol 2. […]

[4] = In vivo assay of body temperature increase (rectal body temperature); parameters: species or system rat; conditions: rats, oral, 10 mL/kg of 1 mg/mL in 0.5% methylcellulose; greatest ΔTb versus vehicle control at 0.5, 1 or 2 hrs
Source text: Hyperthermia or undesirable elevation in animal body temperature is known to be an undesirable side-effect accompanying the administration of certain TRPV1 antagonists (Gavva, “Body-temperature maintenance as the predominant function of the vanilloid receptor TRPV1,” Trends Pharmacol. Sci. 29(11):550-557 (2008)).
Test Animals: Selection of rats (Crl/SD rats, 7 weeks, male) was based on rectal body temperature measured during the morning of the day of dosing as described below. In addition, to minimize spontaneous, stress-induced increases in body temperature, rats were acclimated in advance to both the rectal measurement procedure and to being handled and dosed. All lodging and testing took place in animal care laboratories with constant room temperature and humidity. The rats were free to move and ingest food and water throughout. Each rat was coded with a colored line on the tail, housed in a separate cage, and permitted the normal range of movement. Immediately before each body temperature measurement, a rat was transferred to a measurement cage. To reduce stress which could influence its body temperature, each rat was covered with towels during the measurement. A thermistor probe was then carefully inserted into the rectum of each rat and left in place until the temperature reading on the digital display had stabilized; this value was recorded.
Assay: On the day before dosing, rectal body temperature was measured at 9:00, 10:00, 11:00, 12:30, 13:30, 14:30, and 15:30 o'clock to familiarize the rats with the measurement procedure prior to administration of the test or control treatments. The rats were also dosed by oral gavage without vehicle at 12:30 o'clock to acclimate and familiarize them with the handling and dosing procedure.
On the day of dosing, only rats with rectal body temperatures within the range of from 37.0° C. to 37.7° C. were selected for study. Rectal body temperatures were measured at 9:00, 10:00, and 11:00 o'clock. Rats were excluded from the study if either their rectal body temperature was over 37.9° C. at 10:00 o'clock or was outside the range of from 37.0° C. to 37.7° C. at 11:00 o'clock. The selected rats were divided into several groups based on their rectal body temperatures at 11:00 o'clock. Rectal body temperatures of the selected rats were measured again at 12:30 o'clock and any rat with a rectal body temperature of 38.0° C. or greater was also excluded from the study.
Following assignment to either a test or control group, a test compound or a control was administered to the rats. Each test compound was dissolved in a vehicle of 0.5% aqueous methylcellulose solution and the final concentration of the test compound was adjusted to 1 mg/mL. Each test compound was orally administered once at a dose of 10 mL/kg. The same volume of the control (vehicle only) was administered once to the control group. Rectal body temperatures were measured at the following time points: 0.5, 1, and 2 hrs after administration.
The body temperature increase (ΔTb) for each test compound was calculated by subtracting, at each time point, the average temperature of the control group from the average temperature of the group administered that test compound. The greatest ΔTb obtained for each test compound at any of the time points is shown in Table 11 below, along with the ΔTb of the control.

[5] = Aqueous solubility at pH 1.2 and pH 6.8; type: physicochemical; conditions: aqueous solution

T1 sequence (Q8NER1 whole entry, looked up): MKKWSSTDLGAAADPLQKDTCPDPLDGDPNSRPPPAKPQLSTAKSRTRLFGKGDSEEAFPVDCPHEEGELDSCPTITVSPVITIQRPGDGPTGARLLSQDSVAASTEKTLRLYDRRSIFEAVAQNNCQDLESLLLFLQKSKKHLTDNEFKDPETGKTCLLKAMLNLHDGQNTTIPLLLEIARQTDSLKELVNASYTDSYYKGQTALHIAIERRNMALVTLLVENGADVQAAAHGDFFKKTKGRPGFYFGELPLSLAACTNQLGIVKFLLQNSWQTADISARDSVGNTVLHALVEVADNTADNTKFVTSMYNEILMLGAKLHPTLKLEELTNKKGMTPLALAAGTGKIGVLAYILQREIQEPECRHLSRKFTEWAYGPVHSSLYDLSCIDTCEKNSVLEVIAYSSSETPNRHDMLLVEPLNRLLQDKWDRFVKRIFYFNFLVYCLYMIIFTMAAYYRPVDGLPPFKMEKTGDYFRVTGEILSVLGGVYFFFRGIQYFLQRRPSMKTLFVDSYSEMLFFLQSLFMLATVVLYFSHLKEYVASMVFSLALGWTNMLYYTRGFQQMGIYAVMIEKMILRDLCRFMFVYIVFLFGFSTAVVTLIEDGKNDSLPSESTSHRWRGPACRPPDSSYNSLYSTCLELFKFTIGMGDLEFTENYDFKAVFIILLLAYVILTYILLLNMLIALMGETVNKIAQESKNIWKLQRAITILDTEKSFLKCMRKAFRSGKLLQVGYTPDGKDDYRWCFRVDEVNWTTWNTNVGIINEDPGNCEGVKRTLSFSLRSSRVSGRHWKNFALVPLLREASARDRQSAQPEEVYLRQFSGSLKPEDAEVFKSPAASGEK

What does the source list for `C[C@@H]1CN(c2ncc([C@@H](O)CO)cc2F)CCN1C(=O)Nc1nc2ccccc2s1` [A122(e), (R)—N-(benzo[d]thiazol-2-yl)-4-(5-((R)-1,2-dihydroxyethyl)-3-fluoropyridin-2-yl)-2-methylpiperazine-1-carboxamide]?
IC50 (human TRPV1 [1]): 96 ± 2.4 nM; IC50 (human TRPV1 [2]): 80.6 ± 7.5 nM; IC50 (human TRPV1 [3]): 5.8 ± 0.7 nM

Which IC50 (human TRPV1 [1]) does the source give for `C[C@@H]1CN(c2ncc([C@@H](O)CO)cc2F)CCN1C(=O)Nc1nc2ccc(F)cc2s1` [A125(e), (R)-4-(5-((R)-1,2-dihydroxyethyl)-3-fluoropyridin-2-yl)-N-(6-fluorobenzo[d]thiazol-2-yl)-2-methylpiperazine-1-carboxamide] here?
Its IC50 is 18.4 ± 0.8 nM.

What about the IC50 (human TRPV1 [2]) of the same compound?
Its IC50 is 23.9 ± 3.8 nM.

And the IC50 (human TRPV1 [3])?
Its IC50 is 0.6 ± 0.2 nM.

With `C[C@H]1CN(c2ncc([C@H](O)CO)cc2F)CCN1C(=O)Nc1nc2cc(F)ccc2s1` [A155(a), (S)-4-{5-[(S)-1,2-Dihydroxyethyl]-3-fluoropyridin-2-yl}-N-(5-fluorobenzo[d]thiazol-2-yl)-2-methylpiperazine-1-carboxamide] as the compound, how does the “ΔTb, body temperature increase” value [4] read?
The value was 0.2 °C.

And the IC50 (human TRPV1 [1])?
Its IC50 is 700 nM.

And the solubility ([5]; pH 1.2, simulated gastric fluid, read-out: aqueous solubility at pH 1.2)?
Its solubility is > 50 µM.

What about the solubility ([5]; pH 6.8, aqueous buffer, read-out: aqueous solubility at pH 6.8) of the same compound?
Its solubility is 17 µM (≈ 7.64 µg/mL).

And the IC50 (human TRPV1 [2])?
The IC50 was 96 ± 18 nM.

What does the source list for `C[C@H](O)[C@@H](O)c1cnc(N2CCN(C(=O)Nc3nc4ccc(Cl)cc4s3)CC2)c(F)c1` [C123(r), N-(6-chlorobenzo[d]thiazol-2-yl)-4-(5-((1S,2S)-1,2-dihydroxypropyl)-3-fluoropyridin-2-yl)piperazine-1-carboxamide]?
IC50 (human TRPV1 [1]): 96 ± 14 nM; IC50 (human TRPV1 [2]): 26.9 ± 3.6 nM; IC50 (human TRPV1 [3]): 20.6 ± 2.6 nM

Which “ΔTb, body temperature increase” value [4] does the source give for `C[C@H](O)[C@@H](O)c1cnc(N2CCN(C(=O)Nc3nc4ccc(F)cc4s3)[C@@H](C)C2)c(F)c1` [BB, (S)-4-{5-[(1S,2S)-1,2-dihydroxypropyl]-3-fluoropyridin-2-yl}-N-(6-fluorobenzo[d]thiazol-2-yl)-2-methylpiperazine-1-carboxamide] here?
The value was 0.5 °C.

And the IC50 (human TRPV1 [1])?
Its IC50 is 490 nM.

And the IC50 (human TRPV1 [2])?
The IC50 was 63.7 ± 13.4 nM.
